The values that follow come from US20220143143A1, “USE OF ACTIVATORS OF THE ARYL HYDROCARBON RECEPTOR FOR TREATING GLUTEN-INDUCED GASTROINTESTINAL DISEASES” (McMaster University, priority 2019, published 2022).

What all share (assay type): in vivo
Data set [1] relates to NOD/DQ8 mice. Description: Gut barrier function by Ussing chamber technique (jejunum). The note with it: gluten treated NOD/DQ8 mice, 1 μg/mouse i.p. at day 1, 10, 20 and 30, vs vehicle (DMSO). Here is the method: Gut barrier function was assessed by a Ussing chamber technique. Briefly, sections of jejunum from each mouse were mounted in a Ussing Chamber with an opening of 0.6 cm^2. Net active transport across the epithelium was measured via a short circuit current response (Isc, μA) injected through the tissue under voltage-clamp conditions. Baseline Isc (μA/cm^2) was recorded at equilibrium 20 min after mounting jejunum sections. Mucosal-to-serosal transport of macromolecules was assessed by adding ^51Cr-EDTA in the luminal side of the chamber. ^51Cr-EDTA fluxes were calculated by measuring the proportion of radioactive ^51Cr-EDTA detected in the serosal side of the chamber after 2 hours compared to the radioactive ^51Cr-EDTA placed in the luminal side at the beginning of experiment.

The subject of data set [2] is NOD/DQ8 mice. Description: Fecal lipocalin-2 quantification. As to conditions: gluten treated NOD/DQ8 mice; 1 μg/mouse i.p. at day 1, 10, 20 and 30; vs vehicle (DMSO).
The test system of data set [3] is AhR pathway genes. In words: qPCR expression of AhR pathway and inflammation genes in duodenum. The note with it: gluten treated NOD/DQ8 mice; 1 μg/mouse i.p. at day 1, 10, 20 and 30; vs vehicle (DMSO). As to the method: AhR activation in duodenal biopsies was measured through qPCR to assess the expression of AhR pathway genes: AhR, CYP1A1, IL-22 and IL-17. IL-15 gene expression was also measured by qPCR as an inflammation marker. Total RNA was isolated from mouse duodenum samples using RNeasy Mini Kit (Qiagen, Hilden, Germany) with the DNase treatment, according to the manufacturer's instructions. RNA concentration was determined using a NanoDrop spectrophotometer […]. Quantitative RT-PCR was performed using iScript Reverse Transcriptase (Bio-Rad) and then a SsoFast EvaGreen Supermix (Bio-Rad) in a Mastercycler ep realplex apparatus (Eppendorf) with specific mouse oligonucleotides. Additional information on the primers used is available in Table 2. qPCR data were analyzed using the 2-ΔΔCt quantification method with mouse Gapdh as the endogenous control.
(In general: In qPCR the cycle at which signal appears reflects the starting amount.)

Data set [4] concerns NOD/DQ8 mice. Description: Histology and immunohistochemistry of proximal small intestine (V/C ratios, CD3+ IEL counts). As to conditions: gluten treated NOD/DQ8 mice; 1 μg/mouse i.p. at day 1, 10, 20 and 30; vs vehicle (DMSO). Here is the method:
For histology and immunohistochemistry studies, cross-sections of the proximal small intestine were fixed in 10% formalin and embedded in paraffin. Enteropathy was determined by measuring villus-to-crypt (V/C) ratios in a blinded fashion. The presence of IELs (intraepithelial lymphocytes) in the sections was determined by immunostaining for CD3+ cells. Briefly, sections were stained with polyclonal rabbit anti-mouse CD3 (Dako) and in each section, and intraepithelial lymphocytosis was determined by counting CD3+ IELs per 20 enterocytes in five randomly chosen villus tips.

Consider `O=Cc1c2c(cc3c1=Nc1ccccc1-3)=Nc1ccccc1-2` [Ficz, 6-formylindolo(3,2-b) carbazole], for which the paracellular permeability entry in data set [1] (51Cr-EDTA) is “improved”. Moreover, the ion transport result in data set [1] is listed as “improved”. Besides, the “other markers of overall gut inflammation (fecal lipocalin-2, FIG. 17)” value in data set [2] is “improved”. Further, in data set [3], the “intestinal IL-15 expression” value is “did not affect” and the “intestinal expression of AhR target genes (Cyp1a1, Il22, Il17)” value is reported as “even higher expression”. In data set [4], the IEL counts entry is “improved” and the V/C ratios entry is “improved”.
